Measurements taken from patent US5521315A, “Olefin substituted long chain compounds” (priority 1993, dated 1996).

Tested on: CMV promoter activity in transformed (adenovirus) cells
Assay: CMV promoter assay (gene transcription and translation; cytotoxicity in transformed cells)
Type: cell-based
Settings: not given
Text: (§1) FIG. 18 illustrates data regarding proliferative activity of various inventive compounds for inducting CMV promoter activity. The CMV promoter assay measures gene transcription and translation activity wherein any active compounds will have cytotoxic activity to inhibit cellular protein synthesis machinery in transformed (adenovirus) cells.
as §1, with “This example” for “FIG. 18”

SMILES | IC50 [µM]
CC/C=C\CCCCCn1c(=O)c(C)cn(C)c1=O [CT1916, 3-(6-cis-nonenyl)-1-methylthymine] | 250
C=CCCCCCCCn1c(=O)c(C)cn(C)c1=O [CT1917, 3-(8-nonenyl)-1-methylthymine] | 75
C=CCCn1c(=O)c2c(ncn2C)n(C)c1=O [CT2503, 1-(3-butenyl)-3,7-dimethylxanthine] | > 500
C=CC(O)CCCCCn1c(=O)c2c(ncn2C)n(C)c1=O (centres unmarked) [CT2508, 1-(6-hydroxy-7-octenyl)-3,7-dimethylxanthine] | > 500
CCCCCCCCC=CCCCCCCCCn1c(=O)c2c(ncn2C)n(C)c1=O [CT2539, 1-(9-octadecenyl)-3,7-dimethylxanthine] | > 100
CC(C)=CCCC(C)=CCCC(C)=CCn1c(=O)c2c(ncn2C)n(C)c1=O [CT2544, 1-(Farnesyl)-3,7-dimethylxanthine] | 20
CC(C)=CCC/C(C)=C/Cn1c(=O)c2c(ncn2C)n(C)c1=O [CT2545, 1-(Geranyl)-3,7-dimethylxanthine] | 75

Same assay, conditions: Table 2 / FIG. 18

SMILES | cytotoxicity ranking in CMV promoter assay
CC(C)=CCCC(C)=CCCC(C)=CCn1c(=O)c2c(ncn2C)n(C)c1=O [CT2544, 1-(Farnesyl)-3,7-dimethylxanthine] | the most cytotoxic compound tested

Tested on: mast cell degranulation
Assay: Serotonin release assay (inhibition of mast cell degranulation)
Type: cell-based
Settings: 50 μM
Text: A serotonin release assay is utilized to study the utility of the inventive compounds for treatment of asthma and allergy. […] This assay measures mast cell degranulation, which is an early phase reaction to allergen challenge. Mast cells grown in tissue culture are first loaded with ^3 H serotonin, which is incorporated into the granules in the cells. The mast cells are sensitized with antigen specific monoclonal IgE, and then triggered to degranulate with the specific antigen (dinitorphenolbound to BSA (DNP)). When the cells degranulate, ^3 H Serotonin is released into the medium, and can be measured directly. The ability of the inventive compounds to inhibit the degranulation response is determined by the decrease in ^3 H Serotonin released in the presence of drug and is represented as % INHIBITION.
Specifically, the serotonin release assay seeds 2×10^5 cells in 0.5 ml medium in duplicate for spontaneous release, IgE+DNP, IgE+DNP+EtOH (vehicle control), and inventive compounds. […] The cells are incubated for 18 hours at 37° C. in 5% CO2, washed twice with 0.5 ml Isotonic Buffer (25 mM disodium PIPES pH 7.1,100 mM NaCl, 5 mM KCl, 5 mM glucose, 0.4 mM MgCl2, 1mM CaCl2, 0.1% BSA), and sterile filtered. 250 μl Isotonic Buffer is added per well and the plates are equilibrated in an incubator for about 10 min. Drug is added and cells are activated with 40 ng/ml DNP-BSA (1 mg/ml Diluted 1:200 in Isotonic Buffer) for 45 minutes using 2 μl/250 μl. Spontaneous release is determined in incubated cells with 250 μl Isotonic Buffer for 45 minutes and the reaction is stopped by removing supernatant and centrifuging at ~4000 rpm in microfuge for 15 seconds to remove any detached cells. Released radiolableled serotonin is counted. To determine amount of ^3 H-serotonin incorporated into the cells, (a) remove Isotonic Buffer and lyse cells by adding 250 μl 1% Triton-X100 in PBS, (b) add to 5 ml scintillation fluid, (c) wash 2× with Triton/PBS, and (d) add washes to scintillation tube. Percent serotonin release is calculated by dividing the amount of released serotonin by the sum of incorporated plus released serotonin and correcting for spontaneous released serotonin. Compound inhibition is calculated by dividing the percent serotonin release in the presence of a compound by the percent serotonin release in the absence of the compound.
This assay is described above and provides an in vitro model for an allergy and asthma therapeutic product.

SMILES | activity in serotonin release assay
C=CCCCCn1c(=O)n(C)c(=O)c2ccccc21 [CT1203, 1-(5-hexenyl)-3-methylbenzoyleneurea] | appear to be quite potent
CC/C=C\CCCCCN1C(=O)CCCC1=O [CT1607, N-(6-cis-nonenyl)glutarimide] | appears to decrease the activity
C=CCCCCCCCCCN1C(=O)CCN(C)C1=O [CT1819, 3-(10-undecenyl)-1-methyldihydrouracil] | just not having much of an effect at 50 μM
CC/C=C\CCCCCn1c(=O)c(C)cn(C)c1=O [CT1916, 3-(6-cis-nonenyl)-1-methylthymine] | appears to decrease the activity
CC/C=C\CCCCCCn1c(=O)c2c(ncn2C)n(C)c1=O [CT2560, 1-(7-cis-decenyl)-3,7-dimethylxanthine] | appears to increase the activity

Same assay, conditions: 50 μM; Table 3

SMILES | % INHIBITION (serotonin release)
C=CCCCCCCCCCN1C(=O)CCN(C)C1=O [CT1819, 3-(10-undecenyl)-1-methyldihydrouracil] | no inhibi-

Same assay, conditions: 50 μM; Table 4; average corrected for spontaneous release

SMILES | RELEASE-SPONT [%]
C=CCCCCn1c(=O)n(C)c(=O)c2ccccc21 [CT1203, 1-(5-hexenyl)-3-methylbenzoyleneurea] | -1.12
CC/C=C\CCCCCN1C(=O)CCCC1=O [CT1607, N-(6-cis-nonenyl)glutarimide] | 3.82
C=CCCCCCCCCCN1C(=O)CCCC1=O [CT1610, N-(10-undecenyl)glutarimide] | 2.27
C=CCCCCCCCCCN1C(=O)CCN(C)C1=O [CT1819, 3-(10-undecenyl)-1-methyldihydrouracil] | 9.42
C=CCCCCCCCCCn1c(=O)ccn(C)c1=O [CT1823, 3-(10-undecenyl)1-methyluracil] | 4.72
CC/C=C\CCCCCn1c(=O)c(C)cn(C)c1=O [CT1916, 3-(6-cis-nonenyl)-1-methylthymine] | 6.02
C=CCCCCCCCn1c(=O)c(C)cn(C)c1=O [CT1917, 3-(8-nonenyl)-1-methylthymine] | 3.75
C=CCCCCCCCCCn1c(=O)c(C)cn(C)c1=O [CT1931, 3-(10-undecenyl)-1-methylthymine] | 2.23
C=CCCn1c(=O)c2c(ncn2C)n(C)c1=O [CT2503, 1-(3-butenyl)-3,7-dimethylxanthine] | 4.87
C=CC(O)CCCCCn1c(=O)c2c(ncn2C)n(C)c1=O (centres unmarked) [CT2508, 1-(6-hydroxy-7-octenyl)-3,7-dimethylxanthine] | 2.89
C=CCCCCCCCCCCn1c(=O)c2c(ncn2C)n(C)c1=O [CT2516, 1-(11-dodecenyl)-3,7-dimethylxanthine] | 5.57
CCCCCCCCC=CCCCCCCCCn1c(=O)c2c(ncn2C)n(C)c1=O [CT2539, 1-(9-octadecenyl)-3,7-dimethylxanthine] | 3.13
CC(C)=CCCC(C)=CCCC(C)=CCn1c(=O)c2c(ncn2C)n(C)c1=O [CT2544, 1-(Farnesyl)-3,7-dimethylxanthine] | -1.11
CC(C)=CCC/C(C)=C/Cn1c(=O)c2c(ncn2C)n(C)c1=O [CT2545, 1-(Geranyl)-3,7-dimethylxanthine] | 2.49
C=CCCCCCCCCCCCn1c(=O)c2c(ncn2C)n(C)c1=O [CT2555, 1-(12-tridecenyl)-3,7-dimethylxanthine] | 5.72
CC/C=C\CCCCCCn1c(=O)c2c(ncn2C)n(C)c1=O [CT2560, 1-(7-cis-decenyl)-3,7-dimethylxanthine] | 2.96

Same assay, conditions: 50 μM; Table 4; average of duplicates

SMILES | AVERAGE % RELEASE [%]
C=CCCCCn1c(=O)n(C)c(=O)c2ccccc21 [CT1203, 1-(5-hexenyl)-3-methylbenzoyleneurea] | 15.43
CC/C=C\CCCCCN1C(=O)CCCC1=O [CT1607, N-(6-cis-nonenyl)glutarimide] | 20.38
C=CCCCCCCCCCN1C(=O)CCCC1=O [CT1610, N-(10-undecenyl)glutarimide] | 18.83
C=CCCCCCCCCCN1C(=O)CCN(C)C1=O [CT1819, 3-(10-undecenyl)-1-methyldihydrouracil] | 25.98
C=CCCCCCCCCCn1c(=O)ccn(C)c1=O [CT1823, 3-(10-undecenyl)1-methyluracil] | 21.28
CC/C=C\CCCCCn1c(=O)c(C)cn(C)c1=O [CT1916, 3-(6-cis-nonenyl)-1-methylthymine] | 22.58
C=CCCCCCCCn1c(=O)c(C)cn(C)c1=O [CT1917, 3-(8-nonenyl)-1-methylthymine] | 20.31
C=CCCCCCCCCCn1c(=O)c(C)cn(C)c1=O [CT1931, 3-(10-undecenyl)-1-methylthymine] | 18.78
C=CCCn1c(=O)c2c(ncn2C)n(C)c1=O [CT2503, 1-(3-butenyl)-3,7-dimethylxanthine] | 21.43
C=CC(O)CCCCCn1c(=O)c2c(ncn2C)n(C)c1=O (centres unmarked) [CT2508, 1-(6-hydroxy-7-octenyl)-3,7-dimethylxanthine] | 19.44
C=CCCCCCCCCCCn1c(=O)c2c(ncn2C)n(C)c1=O [CT2516, 1-(11-dodecenyl)-3,7-dimethylxanthine] | 22.12
CCCCCCCCC=CCCCCCCCCn1c(=O)c2c(ncn2C)n(C)c1=O [CT2539, 1-(9-octadecenyl)-3,7-dimethylxanthine] | 19.69
CC(C)=CCCC(C)=CCCC(C)=CCn1c(=O)c2c(ncn2C)n(C)c1=O [CT2544, 1-(Farnesyl)-3,7-dimethylxanthine] | 15.44
CC(C)=CCC/C(C)=C/Cn1c(=O)c2c(ncn2C)n(C)c1=O [CT2545, 1-(Geranyl)-3,7-dimethylxanthine] | 19.05
C=CCCCCCCCCCCCn1c(=O)c2c(ncn2C)n(C)c1=O [CT2555, 1-(12-tridecenyl)-3,7-dimethylxanthine] | 21.68
CC/C=C\CCCCCCn1c(=O)c2c(ncn2C)n(C)c1=O [CT2560, 1-(7-cis-decenyl)-3,7-dimethylxanthine] | 19.51

Same assay, conditions: Mast cell; 50 μM; Table 4

SMILES | inhibition at 50 µM [%]
C=CCCCCn1c(=O)n(C)c(=O)c2ccccc21 [CT1203, 1-(5-hexenyl)-3-methylbenzoyleneurea] | 114
CC/C=C\CCCCCN1C(=O)CCCC1=O [CT1607, N-(6-cis-nonenyl)glutarimide] | 52.3
C=CCCCCCCCCCN1C(=O)CCCC1=O [CT1610, N-(10-undecenyl)glutarimide] | 71.7
C=CCCCCCCCCCN1C(=O)CCN(C)C1=O [CT1819, 3-(10-undecenyl)-1-methyldihydrouracil] | -17.5
C=CCCCCCCCCCn1c(=O)ccn(C)c1=O [CT1823, 3-(10-undecenyl)1-methyluracil] | 41.1
CC/C=C\CCCCCn1c(=O)c(C)cn(C)c1=O [CT1916, 3-(6-cis-nonenyl)-1-methylthymine] | 24.9
C=CCCCCCCCn1c(=O)c(C)cn(C)c1=O [CT1917, 3-(8-nonenyl)-1-methylthymine] | 53.2
C=CCCCCCCCCCn1c(=O)c(C)cn(C)c1=O [CT1931, 3-(10-undecenyl)-1-methylthymine] | 72.2
C=CCCn1c(=O)c2c(ncn2C)n(C)c1=O [CT2503, 1-(3-butenyl)-3,7-dimethylxanthine] | 39.2
C=CC(O)CCCCCn1c(=O)c2c(ncn2C)n(C)c1=O (centres unmarked) [CT2508, 1-(6-hydroxy-7-octenyl)-3,7-dimethylxanthine] | 64
C=CCCCCCCCCCCn1c(=O)c2c(ncn2C)n(C)c1=O [CT2516, 1-(11-dodecenyl)-3,7-dimethylxanthine] | 30.6
CCCCCCCCC=CCCCCCCCCn1c(=O)c2c(ncn2C)n(C)c1=O [CT2539, 1-(9-octadecenyl)-3,7-dimethylxanthine] | 61
CC(C)=CCCC(C)=CCCC(C)=CCn1c(=O)c2c(ncn2C)n(C)c1=O [CT2544, 1-(Farnesyl)-3,7-dimethylxanthine] | 114
CC(C)=CCC/C(C)=C/Cn1c(=O)c2c(ncn2C)n(C)c1=O [CT2545, 1-(Geranyl)-3,7-dimethylxanthine] | 68.9
C=CCCCCCCCCCCCn1c(=O)c2c(ncn2C)n(C)c1=O [CT2555, 1-(12-tridecenyl)-3,7-dimethylxanthine] | 36.1
CC/C=C\CCCCCCn1c(=O)c2c(ncn2C)n(C)c1=O [CT2560, 1-(7-cis-decenyl)-3,7-dimethylxanthine] | 63.1
